Assay results from patent US4925930A, “Synthesis and anti-leukemic activity of alkyl-1-(β-D-ribofuranosyl)[1,2,4]triazole-3-carboximidates” (Nucleic Acid Research Institute, priority 1988, dated 1990).
Several values for one entry are separate records, joined by “and”; a condition that tells them apart may be missing. Equal values may be shown once. Read-outs that look alike come from different tables or passages of the source.

Tests used:
[1] = system: murine leukemia L1210; experiment: in vivo; type: in vivo; details: for Residual Cell Population After Last Treatment: calculated from inoculum response data; for antitumor activity in vivo: summary, as per Examples 6 and 7 (L1210 and Friend leukemia)
Text: (§1) In Vivo assessments of therapeutic efficacy and host toxicity with murine leukemia L1210 were made as detailed in M. Kuehl; D. I. Brixner; A. D. Broom; T. L. Avery; R. L. Blakley, Cancer Res., 1988, 48, 1481.
(§2) ^b Treatment responses (6 mice/treatment group) presented as % T/C
(§3) ^c Calculations of residual leukemic cell populations were made using
(§4) ^a Except where otherwise indicated, all solutions were delivered ip

[2] = system: L1210 murine lymphocytic leukemia; experiment: In vitro cytotoxicity / growth inhibition of L1210 murine lymphocytic leukemia; type: cell-based; details: for in vitro growth inhibition: L1210, in vitro cell culture; for cytotoxicity for L1210 cells: cells growing in vitro
[3] = system: WI-L2 human B lymphoblastic leukemia; experiment: In vitro growth inhibition of WI-L2; type: cell-based; details: in vitro cell culture
Protocol: (§5) Compounds (4)and (5) were also tested in vitro for their capacity to inhibit the growth of L1210 murine lymphocytic leukemia, WI-L2 human B lymphoblastic leukemia, and CCRF-CEM human T lymphoblastic leukemia in vitro.

[4] = system: CCRF-CEM human T lymphoblastic leukemia; experiment: In vitro growth inhibition of CCRF-CEM; type: cell-based; details: in vitro cell culture
Protocol: as §5

[5] = system: parainfluenza type 3; type: cell-based; details: cell culture
[6] = system: adeno type 2; type: cell-based; details: cell culture
[7] = system: influenza A; type: cell-based
[8] = system: rhino A; type: cell-based; details: cell culture
[9] = system: semliki forest; type: cell-based; details: cell culture
[10] = system: visna; type: cell-based; details: cell culture
[11] = system: herpes simplex type 2 viruses; type: cell-based; details: cell culture
[12] = system: viruses; experiment: Cell culture antiviral activity (general statement); type: cell-based
[13] = system: Friend leukemia; details: for Spleen Weight / tox (in Spleen Weight column): day 1,3,5,7,9,11, ip; for Spleen Weight: control w/tumor 1538 ± 561, wo/tumor 82 ± 11; for Friend leukemia-related splenomegaly diminished: nontoxic dosing
[14] = in water; for maximum dosage which could be delivered as a single bolus (maximum soluble dosage): 0.01 ml/gram mouse weight
[15] = in vivo; type: in vivo; details: mouse, in vivo, ip, read-out: maximum non-lethal dosage
Text: as §1, §2, §3, §4

[16] = system: HIV; details: human T lymphocytes; 50 μg/mL; cited from earlier work
[17] = bid, day 1,3,5,7, 480 mg/kg, ip
[18] = qd, day 1-7, 480 mg/kg, ip, 480 mg/kg
[19] = qd, day 1, 480 mg/kg, ip, 480 mg/kg

COC(=N)c1ncn([C@@H]2O[C@H](CO)[C@@H](O)[C@H]2O)n1 [Compound (4), Methyl-1-(β-D-ribofuranosyl)[1,2,4]triazole-3-carboximidate]
Postinoculation Lifespan (% T/C) [1, 17]: 162 % T/C | Residual Cell Population After Last Treatment [1, 17]: 12 % of control | Postinoculation Lifespan (% T/C) ([1]; bid, day 1-7, 480 mg/kg, ip): 101 % T/C | Postinoculation Lifespan (% T/C) ([1]; bid, day 1, 480 mg/kg, ip): 125 % T/C | Residual Cell Population After Last Treatment ([1]; bid, day 1, 480 mg/kg, ip): 9 % of control | T/C ([1]; qd day 1, maximum soluble dosage, 480 mg/kg, repeated): ≈ 115 | Postinoculation Lifespan (% T/C) ([1]; qd, day 1,3,5,7, 480 mg/kg, ip): 121 % T/C | Residual Cell Population After Last Treatment ([1]; qd, day 1,3,5,7, 480 mg/kg, ip): 46 % of control | Postinoculation Lifespan (% T/C) ([1]; qd, day 1,4,7, 480 mg/kg, ip): 119 % T/C | Residual Cell Population After Last Treatment ([1]; qd, day 1,4,7, 480 mg/kg, ip): 73 % of control | Postinoculation Lifespan (% T/C) [1, 18]: 162 % T/C and 142 % T/C | Residual Cell Population After Last Treatment [1, 18]: 12 % of control and 7 % of control | Postinoculation Lifespan (% T/C) ([1]; qd, day 1-7, 480 mg/kg, po): 97 % T/C | Residual Cell Population After Last Treatment ([1]; qd, day 1-7, 480 mg/kg, po): 139 % of control | Postinoculation Lifespan (% T/C) [1, 19]: 113 % T/C and 114 % T/C and 116 % T/C | Residual Cell Population After Last Treatment [1, 19]: 32 % of control and 30 % of control and 21 % of control | lethal toxicity ([1]; qid day 1, 480 mg/kg/injection): lethally toxic | Postinoculation Lifespan (% T/C) ([1]; qid, day 1, 480 mg/kg, ip): 60 % T/C | antitumor activity in vivo [1]: significant antitumor activity in vivo | T/C ([1]; tid day 1, 480 mg/kg/injection): 153 | leukemic cell kill ([1]; tid day 1, 480 mg/kg/injection): > 99% | Postinoculation Lifespan (% T/C) ([1]; tid, day 1,3,5,7, 480 mg/kg, ip): 76 % T/C | Postinoculation Lifespan (% T/C) ([1]; tid, day 1-7, 480 mg/kg, ip): 61 % T/C | Postinoculation Lifespan (% T/C) ([1]; tid, day 1, 480 mg/kg, ip): 153 % T/C | Residual Cell Population After Last Treatment ([1]; tid, day 1, 480 mg/kg, ip): 0.6 % of control | in vitro growth inhibition [2]: neither compound demonstrated in vitro growth inhibition | cytotoxicity for L1210 cells [2]: neither compound (4) nor compound (5) was cytotoxic | in vitro growth inhibition [3]: neither compound demonstrated in vitro growth inhibition | in vitro growth inhibition [4]: neither compound demonstrated in vitro growth inhibition | antiviral activity [5]: inactive | antiviral activity [6]: inactive | antiviral activity [7]: inactive | antiviral activity [8]: inactive | antiviral activity [9]: inactive | antiviral activity [10]: inactive | antiviral activity [11]: inactive | cell culture antiviral activity [12]: devoid themselves of cell culture antiviral activity | Spleen Weight ([13]; bid, 288 mg/kg, P < 0.005): 150 ± 53 mg | tox (in Spleen Weight column) ([13]; bid, 480 mg/kg): tox | Friend leukemia-related splenomegaly diminished [13]: significantly diminished | Spleen Weight ([13]; qd, 288 mg/kg, P < 0.02): 599 ± 133 mg | Spleen Weight ([13]; qd, 480 mg/kg, P < 0.01): 216 ± 60 mg | water solubility relative to biological activity [14]: limited water solubility | maximum dosage which could be delivered as a single bolus (maximum soluble dosage) [14]: 480 mg/kg

CCOC(=N)c1ncn([C@@H]2O[C@H](CO)[C@@H](O)[C@H]2O)n1 [Compound (5), Ethyl-1-(β-D-ribofuranosyl)[1,2,4]triazole-3-carboximidate]
MTD ([15]; qd day 1): 1330 mg/kg | MTD ([15]; qd days 1-7): 288 mg/kg | dosage/schedule dependence of anti-L1210 activity ([1]; mouse, in vivo): more dosage than schedule dependent | lethal toxicity for L1210-inoculated mice ([1]; mouse, in vivo, 3704 mg/kg): lethally toxic | therapeutic efficacy ([1]; qd day 1, 288 mg/kg): decline of therapeutic efficacy | leukemic cell kill ([1]; qd day 1, 1333 mg/kg, gauged by inoculum response data): 98.7% | T/C ([1]; qd day 1, maximum non-lethal dosage, 1333 mg/kg): 149 | lethal toxicity ([1]; qd days 1-7, compared with qd day 1): lethal toxicity was produced by lower dosages | increase in mean life span (T/C) ([1]; qd days 1-7, maximum non-lethal dosage, 288 mg/kg): 144 | Postinoculation Lifespan (% T/C) ([1]; qd, day 1-7, 288 mg/kg, ip): 144 % T/C | Residual Cell Population After Last Treatment ([1]; qd, day 1-7, 288 mg/kg, ip): 1.7 % of control | Postinoculation Lifespan (% T/C) ([1]; qd, day 1-7, 480 mg/kg, ip): 134 % T/C | Postinoculation Lifespan (% T/C) ([1]; qd, day 1-7, 800 mg/kg, ip): 70 % T/C | Postinoculation Lifespan (% T/C) ([1]; qd, day 1, 288 mg/kg, ip): 114 % T/C | Residual Cell Population After Last Treatment ([1]; qd, day 1, 288 mg/kg, ip): 27.0 % of control | Postinoculation Lifespan (% T/C) ([1]; qd, day 1, 480 mg/kg, ip): 149 % T/C | Residual Cell Population After Last Treatment ([1]; qd, day 1, 480 mg/kg, ip): 1.1 % of control | Postinoculation Lifespan (% T/C) ([1]; qd, day 1, 800 mg/kg, ip, 800 mg/kg): 159 % T/C and 144 % T/C | Postinoculation Lifespan (% T/C) ([1]; qd, day 1, 1333 mg/kg, ip): 149 % T/C | Residual Cell Population After Last Treatment ([1]; qd, day 1, 1333 mg/kg, ip): 1.3 % of control | Postinoculation Lifespan (% T/C) ([1]; qd, day 1, 2222 mg/kg, ip): 92 % T/C | Postinoculation Lifespan (% T/C) ([1]; qd, day 1, 3704 mg/kg, ip): 48 % T/C | antitumor activity in vivo [1]: significant antitumor activity in vivo | in vitro growth inhibition [2]: neither compound demonstrated in vitro growth inhibition | cytotoxicity for L1210 cells [2]: neither compound (4) nor compound (5) was cytotoxic | in vitro growth inhibition [3]: neither compound demonstrated in vitro growth inhibition | in vitro growth inhibition [4]: neither compound demonstrated in vitro growth inhibition | antiviral activity [5]: inactive | antiviral activity [6]: inactive | antiviral activity [7]: inactive | antiviral activity [8]: inactive | antiviral activity [9]: inactive | antiviral activity [10]: inactive | antiviral activity [11]: inactive | cell culture antiviral activity [12]: devoid themselves of cell culture antiviral activity | Friend leukemia-related splenomegaly diminished [13]: not | Spleen Weight ([13]; qd, 480 mg/kg): 1257 ± 185 mg | tox (in Spleen Weight column) ([13]; qd, 800 mg/kg): tox | tox (in Spleen Weight column) ([13]; qd, 1333 mg/kg): tox | maximum dosage which could be delivered as a single bolus (maximum soluble dosage) [14]: 3704 mg/kg

NC(=O)c1ncn([C@@H]2O[C@H](CO)[C@@H](O)[C@H]2O)n1 [ribavirin, 1-(β-D-ribofuranosyl)-[1,2,4]triazole-3-carboxamide]
inhibition of HIV replication [16]: inhibits the replication
